Values after ≈ are worked out from the molar mass of the structure shown. Where two headings read alike, the source gives them in different places.
Columns and labels:
[1] = Solubility of drug in water; assay type: physicochemical
Log P value of drug = assay type: physicochemical; conditions: octanol/water
Excerpt: The first property of hydrophobic drugs is that they are extremely hydrophobic. Log P, defined as the base 10 logarithm of the ratio of the drug solubility in octanol to the drug solubility in water, is a widely accepted measure of hydrophobicity. By “extremely hydrophobic” is meant that the Log P value of the drug is at least 4.0, preferably at least 4.5, and most preferably at least 5.0. Log P may be measured experimentally or calculated using methods known in the art. When using a calculated value for Log P, the highest value calculated using any generally accepted method for calculating Log P is used. Calculated Log P values are often referred to by the calculation method, such as C log P, A log P, and M log P. The Log P may also be estimated using fragmentation methods, such as Crippen's fragmentation method (27 J. Chem. Inf. Comput. Sci. 21 (1987)); Viswanadhan's fragmentation method (29 J. Chem. Inf. Comput. Sci. 163 (1989)); or Broto's fragmentation method (19 Eur. J. Med. Chem.-Chim. Theor. 71 (1984). Preferably the Log P value is calculated by using the average value estimated using Crippen's, Viswanadhan's, and Broto's fragmentation methods.

[2] = Protocol: By “solids concentration” is meant the amount of solid polymer added to the PBS solution to measure the solubility of the polymer in the PBS solution. An appropriate PBS solution is an aqueous solution comprising 20 mM sodium phosphate (Na2HPO4), 47 mM potassium phosphate (KH2PO4), 87 mM NaCl, and 0.2 mM KCl, adjusted to pH 6.5 with NaOH. A test to determine whether the polymer is poorly water soluble may be performed as follows. The polymer is initially present in bulk form with average particle sizes of greater than 1 micron. The solid polymer alone is added to a PBS solution to achieve a solids concentration of 0.2 mg/mL polymer in the PBS solution. The PBS solution is stirred for approximately 1 hour at room temperature. Next, a nylon 0.45 μm filter is weighed, and the polymer solution is filtered. The filter is dried overnight at 40° C., and weighed the following morning. The amount of polymer dissolved is calculated from the amount of polymer added to the PBS solution minus the amount of polymer remaining on the filter (mg).
The degree of water solubility of Polymers 2, 3, and 5 were evaluated as follows. […] The amount of dissolved polymer was calculated from amount of polymer added to the PBS solution minus the amount of polymer remaining on the filter (mg). […]

solubility ([1]; read-out: solubility in water) | logP (Log P value of drug) | Solubility (mg/mL) at pH 6.5 [2] | Compound | further results
~3.5 µg/mL (≈ 9.18 µM) |  |  | Cc1ccc(-c2cc(C(F)(F)F)nn2-c2ccc(S(N)(=O)=O)cc2)cc1 [Drug 1, 4-[5-(4-methylphenyl)-3-(trifluoromethyl)-1H-pyrazol-1-yl]benzenesulfonamide] | 
< 0.01 µg/mL |  |  | CC[C@@H]1C[C@H](N(Cc2cc(C(F)(F)F)cc(C(F)(F)F)c2)C(C)=O)c2cc(C(F)(F)F)ccc2N1C(=O)OC(C)C [Drug 2, [2R,4S]-4-[acetyl-(3,5-bis-trifluoromethyl-benzyl)-amino]-2-ethyl-6-trifluoromethyl-3,4-dihydro-2H-quinoline-1-carboxylic acid isopropyl ester] | 
 | 2.47 |  | O=C1NC(=O)C(c2ccccc2)(c2ccccc2)N1 [Drug 3, diphenylhydantoin] | solubility ([1]; pH 7.5, aqueous buffer, read-out: solubility in water at pH 7.5): ~22 µg/mL (≈ 87.2 µM)
~0.15 µg/mL (≈ 0.363 µM) | ~3.6 |  | O=C1Cc2cc(CCN3CCN(c4nsc5ccccc45)CC3)c(Cl)cc2N1 [Drug 4] | 
 |  | 0.2 mg/mL | carboxy methyl ethyl cellulose [CP6] | 
 |  | 0.2 mg/mL | cellulose acetate trimellitate [CP5] | 

From patent US20100215747A1, “NANOPARTICLES COMPRISING IONIZABLE, POORLY WATER SOLUBLE CELLULOSIC POLYMERS” (priority 2007, published 2010)
